Measurements from the NIST ThermoML archive (doi:10.1021/acs.jced.6b00606).
Numbers after ± are expanded uncertainties.

Tests used:
[1] = xn = mol fraction of the nth substance listed; conditions: 100 kPa, Liquid; for speed of sound: Frequency=3 MHz, Sing-around technique in a fixed-path interferometer; for mass density: Vibrating tube method
[2] = excess molar enthalpy (molar enthalpy of mixing); xn = mol fraction of the nth substance listed; conditions: 308.15 K, 100 kPa, Liquid, Calvet calorimetry

O=C1CCCCCC1 [cycloheptanone] + C1COCCO1
[1]
Conditions | mass density, 293.15 K [kg/m3] | mass density, 298.15 K [kg/m3] | mass density, 303.15 K [kg/m3] | mass density, 308.15 K [kg/m3] | speed of sound, 293.15 K [m/s] | speed of sound, 298.15 K [m/s] | speed of sound, 303.15 K [m/s] | speed of sound, 308.15 K [m/s]
x2 = 0.0954 | 957.02 ± 1 | 952.54 ± 1 | 948.07 ± 1 | 943.61 ± 1 | 1466.3 ± 1.6 | 1444.4 ± 1.6 | 1422.1 ± 1.6 | 1399.7 ± 1.6
x2 = 0.1589 | 960.61 ± 1 | 956.03 ± 1 | 951.46 ± 1 | 946.89 ± 1 | 1459.2 ± 1.6 | 1437.4 ± 1.6 | 1415.3 ± 1.6 | 1393 ± 1.6
x2 = 0.2184 | 964.09 ± 1 | 959.46 ± 1 | 954.81 ± 1 | 950.18 ± 1 | 1452.6 ± 1.6 | 1430.9 ± 1.6 | 1408.9 ± 1.6 | 1386.7 ± 1.6
x2 = 0.2555 | 966.35 ± 1 | 961.68 ± 1 | 956.99 ± 1 | 952.32 ± 1 | 1448.6 ± 1.6 | 1426.9 ± 1.6 | 1404.9 ± 1.6 | 1382.8 ± 1.6
x2 = 0.3019 | 969.25 ± 1 | 964.56 ± 1 | 959.82 ± 1 | 955.1 ± 1 | 1443.6 ± 1.6 | 1421.9 ± 1.6 | 1400 ± 1.6 | 1377.9 ± 1.6
x2 = 0.3487 | 972.3 ± 1 | 967.57 ± 1 | 962.78 ± 1 | 958.02 ± 1 | 1438.6 ± 1.6 | 1416.9 ± 1.6 | 1395.1 ± 1.6 | 1373 ± 1.6
x2 = 0.3814 | 974.5 ± 1 | 969.75 ± 1 | 964.92 ± 1 | 960.13 ± 1 | 1435.1 ± 1.6 | 1413.4 ± 1.6 | 1391.6 ± 1.6 | 1369.6 ± 1.6
x2 = 0.4324 | 978.07 ± 1 | 973.27 ± 1 | 968.38 ± 1 | 963.54 ± 1 | 1429.7 ± 1.6 | 1408 ± 1.6 | 1386.3 ± 1.6 | 1364.3 ± 1.6
x2 = 0.4879 | 982.15 ± 1 | 977.29 ± 1 | 972.33 ± 1 | 967.42 ± 1 | 1423.8 ± 1.6 | 1402.2 ± 1.6 | 1380.5 ± 1.6 | 1358.5 ± 1.6
x2 = 0.5219 | 984.76 ± 1 | 979.85 ± 1 | 974.85 ± 1 | 969.89 ± 1 | 1420.3 ± 1.6 | 1398.7 ± 1.6 | 1377 ± 1.5 | 1355 ± 1.5
x2 = 0.5723 | 988.81 ± 1 | 983.82 ± 1 | 978.74 ± 1 | 973.7 ± 1 | 1415 ± 1.5 | 1393.4 ± 1.5 | 1371.8 ± 1.5 | 1349.9 ± 1.5
x2 = 0.6149 | 992.39 ± 1 | 987.32 ± 1 | 982.17 ± 1 | 977.06 ± 1 | 1410.5 ± 1.5 | 1388.9 ± 1.5 | 1367.4 ± 1.5 | 1345.5 ± 1.5
x2 = 0.6687 | 997.15 ± 1 | 991.96 ± 1 | 986.73 ± 1 | 981.52 ± 1 | 1404.8 ± 1.5 | 1383.3 ± 1.5 | 1361.7 ± 1.5 | 1339.9 ± 1.5
x2 = 0.7104 | 1001 ± 1 | 995.75 ± 1 | 990.44 ± 1 | 985.15 ± 1 | 1400.4 ± 1.5 | 1378.9 ± 1.5 | 1357.4 ± 1.5 | 1335.6 ± 1.5
x2 = 0.7489 | 1004.7 ± 1 | 999.41 ± 1 | 994.03 ± 1 | 988.66 ± 1 | 1396.3 ± 1.5 | 1374.7 ± 1.5 | 1353.3 ± 1.5 | 1331.5 ± 1.5
x2 = 0.7919 | 1009.2 ± 1 | 1003.7 ± 1 | 998.23 ± 1 | 992.77 ± 1 | 1391.6 ± 1.5 | 1370.1 ± 1.5 | 1348.6 ± 1.5 | 1326.9 ± 1.5
x2 = 0.8475 | 1015.1 ± 1 | 1009.5 ± 1 | 1004 ± 1 | 998.45 ± 1 | 1385.4 ± 1.5 | 1363.9 ± 1.5 | 1342.5 ± 1.5 | 1320.7 ± 1.5
x2 = 0.9018 | 1021.3 ± 1 | 1015.6 ± 1 | 1010.1 ± 1 | 1004.4 ± 1 | 1379.3 ± 1.5 | 1357.8 ± 1.5 | 1336.3 ± 1.5 | 1314.5 ± 1.5

[2]
Conditions | excess molar enthalpy [kcal/mol]
x2 = 0.0726 | 0.00727 ± 0.000263
x2 = 0.1258 | 0.0119 ± 0.000359
x2 = 0.1769 | 0.0154 ± 0.000406
x2 = 0.2252 | 0.0187 ± 0.000478
x2 = 0.2786 | 0.0213 ± 0.000526
x2 = 0.3286 | 0.0234 ± 0.000574
x2 = 0.3746 | 0.0247 ± 0.000598
x2 = 0.4282 | 0.0255 ± 0.000621
x2 = 0.4712 | 0.0258 ± 0.000621
x2 = 0.5232 | 0.0254 ± 0.000621
x2 = 0.5725 | 0.0247 ± 0.000598
x2 = 0.6235 | 0.0233 ± 0.000574
x2 = 0.6762 | 0.0212 ± 0.000526
x2 = 0.7256 | 0.0191 ± 0.000478
x2 = 0.7716 | 0.0166 ± 0.00043
x2 = 0.8125 | 0.0141 ± 0.000382
x2 = 0.8682 | 0.0101 ± 0.000311
x2 = 0.9129 | 0.007 ± 0.000263

O=C1CCCCC1 [cyclohexanone] + C1CCOCC1
[1]
Conditions | mass density, 293.15 K [kg/m3] | mass density, 298.15 K [kg/m3] | mass density, 303.15 K [kg/m3] | mass density, 308.15 K [kg/m3] | speed of sound, 293.15 K [m/s] | speed of sound, 298.15 K [m/s] | speed of sound, 303.15 K [m/s] | speed of sound, 308.15 K [m/s]
x2 = 0.1175 | 941.72 ± 1 | 937.26 ± 1 | 932.48 ± 1 | 927.65 ± 1 | 1411.4 ± 1.3 | 1394.5 ± 1.3 | 1373.6 ± 1.3 | 1353.2 ± 1.3
x2 = 0.1586 | 939.66 ± 1 | 935.2 ± 1 | 930.42 ± 1 | 925.6 ± 1 | 1404.6 ± 1.3 | 1387.3 ± 1.3 | 1366.3 ± 1.3 | 1345.6 ± 1.3
x2 = 0.1952 | 937.78 ± 1 | 933.32 ± 1 | 928.55 ± 1 | 923.74 ± 1 | 1398.7 ± 1.3 | 1381 ± 1.3 | 1359.7 ± 1.3 | 1339.1 ± 1.3
x2 = 0.2471 | 935.05 ± 1 | 930.59 ± 1 | 925.82 ± 1 | 921.01 ± 1 | 1390.5 ± 1.3 | 1372.1 ± 1.3 | 1350.7 ± 1.3 | 1329.8 ± 1.3
x2 = 0.2843 | 933.05 ± 1 | 928.59 ± 1 | 923.82 ± 1 | 919.01 ± 1 | 1384.6 ± 1.3 | 1365.8 ± 1.3 | 1344.4 ± 1.3 | 1323.4 ± 1.3
x2 = 0.3396 | 930 ± 1 | 925.53 ± 1 | 920.76 ± 1 | 915.96 ± 1 | 1376.1 ± 1.3 | 1356.7 ± 1.3 | 1335.2 ± 1.3 | 1314 ± 1.3
x2 = 0.3784 | 927.8 ± 1 | 923.32 ± 1 | 918.56 ± 1 | 913.76 ± 1 | 1370.3 ± 1.3 | 1350.6 ± 1.3 | 1328.9 ± 1.3 | 1307.6 ± 1.3
x2 = 0.4178 | 925.53 ± 1 | 921.03 ± 1 | 916.26 ± 1 | 911.46 ± 1 | 1364.5 ± 1.3 | 1344.5 ± 1.3 | 1322.6 ± 1.3 | 1301.2 ± 1.3
x2 = 0.462 | 922.91 ± 1 | 918.41 ± 1 | 913.62 ± 1 | 908.82 ± 1 | 1358.2 ± 1.3 | 1337.8 ± 1.3 | 1315.8 ± 1.3 | 1294.2 ± 1.3
x2 = 0.5009 | 920.56 ± 1 | 916.03 ± 1 | 911.24 ± 1 | 906.44 ± 1 | 1352.6 ± 1.3 | 1332.1 ± 1.3 | 1309.9 ± 1.3 | 1288.3 ± 1.3
x2 = 0.5486 | 917.59 ± 1 | 913.03 ± 1 | 908.24 ± 1 | 903.43 ± 1 | 1346.1 ± 1.3 | 1325.3 ± 1.3 | 1302.9 ± 1.3 | 1281.1 ± 1.3
x2 = 0.5814 | 915.51 ± 1 | 910.91 ± 1 | 906.13 ± 1 | 901.31 ± 1 | 1341.7 ± 1.4 | 1320.7 ± 1.3 | 1298.2 ± 1.3 | 1276.3 ± 1.3
x2 = 0.6379 | 911.8 ± 1 | 907.17 ± 1 | 902.35 ± 1 | 897.53 ± 1 | 1334.3 ± 1.4 | 1313.2 ± 1.3 | 1290.3 ± 1.3 | 1268.3 ± 1.3
x2 = 0.6899 | 908.28 ± 1 | 903.58 ± 1 | 898.75 ± 1 | 893.91 ± 1 | 1327.7 ± 1.4 | 1306.4 ± 1.4 | 1283.4 ± 1.3 | 1261.3 ± 1.3
x2 = 0.7389 | 904.83 ± 1 | 900.08 ± 1 | 895.23 ± 1 | 890.37 ± 1 | 1321.7 ± 1.4 | 1299.7 ± 1.4 | 1277 ± 1.3 | 1254.8 ± 1.3
x2 = 0.7804 | 901.82 ± 1 | 897.02 ± 1 | 892.14 ± 1 | 887.26 ± 1 | 1316.8 ± 1.4 | 1294.6 ± 1.4 | 1271.8 ± 1.3 | 1249.6 ± 1.3
x2 = 0.8345 | 897.76 ± 1 | 892.89 ± 1 | 887.96 ± 1 | 883.04 ± 1 | 1310.6 ± 1.4 | 1288.1 ± 1.4 | 1265.3 ± 1.4 | 1242.9 ± 1.3
x2 = 0.8929 | 893.19 ± 1 | 888.23 ± 1 | 883.23 ± 1 | 878.25 ± 1 | 1304.1 ± 1.4 | 1281.4 ± 1.4 | 1258.5 ± 1.4 | 1236.1 ± 1.3

[2]
Conditions | excess molar enthalpy [kcal/mol]
x2 = 0.0989 | 0.0098 ± 0.000311
x2 = 0.1475 | 0.014 ± 0.000382
x2 = 0.1926 | 0.017 ± 0.000454
x2 = 0.2415 | 0.0206 ± 0.000526
x2 = 0.2953 | 0.0231 ± 0.000574
x2 = 0.3416 | 0.0253 ± 0.000621
x2 = 0.3952 | 0.0268 ± 0.000645
x2 = 0.4426 | 0.0274 ± 0.000669
x2 = 0.4956 | 0.0276 ± 0.000669
x2 = 0.5425 | 0.0271 ± 0.000645
x2 = 0.5982 | 0.0257 ± 0.000621
x2 = 0.641 | 0.0244 ± 0.000598
x2 = 0.6825 | 0.0227 ± 0.00055
x2 = 0.7333 | 0.02 ± 0.000502
x2 = 0.7865 | 0.0167 ± 0.00043
x2 = 0.8359 | 0.0132 ± 0.000382
x2 = 0.8875 | 0.0093 ± 0.000311
x2 = 0.9299 | 0.00576 ± 0.000239
